From EPA's ToxValDB 9.5 (doi:10.2903/j.efsa.2009.179r)

Tests used:
[1] = tested on: Aphidius rhopalosiphi; test: LR50; higher = less toxic; details: not reported; mortality
[2] = tested on: Oncorhynchus mykiss
[3] = tested on: Daphnia magna; details: chronic/long-term; duration: 21 days; reproduction
[4] = tested on: Canidae; details: Dog Other, clinical signs
[5] = tested on: Rattus norvegicus; details: reproduction developmental
[6] = tested on: Apis mellifera; details: acute; duration: 48 hours; dermal; mortality
[7] = tested on: Coturnix japonica
[8] = tested on: Oryctolagus sp.; details: acute; oral; mortality
[9] = tested on: Tagia sp.

C[N+](C)(C)CCCl.[Cl-] [Chlormequat chloride]
LR50 [1]: > 2200 g/ha
LC50 ([2]; acute, duration: 96 hours, mortality): > 100 µg/mL
NOEC ([2]; chronic/long-term, duration: 21 days, growth): 43.1 mg/L
NOEC [3]: 2.4 mg/L
NOAEL ([4]; chronic, duration: 1 years, oral): 4 mg/kg-day
NOAEL ([4]; short-term, duration: 4 weeks): 9 mg/kg-day
NOAEL ([5]; body weight): 41 mg/kg-day
NOAEL ([5]; reproduction): 74 mg/kg-day
LD50 [6]: > 65.2 µg/piece
LC50 ([7]; acute, oral, diet, mortality): > 310 mg/kg-day
LD50 ([7]; acute, oral, mortality): 441 mg/kg-day
NOEC ([7]; reproduction developmental): 54.8 mg/kg-day
LD50 [8]: 115 mg/kg-day
LC50 ([9]; acute, duration: 14 days, mortality): 320 mg/kg
NOEC ([9]; chronic/long-term, duration: 56 days): 680 mg/kg
